Measured values as given in patent publication US11925629B2, “Heterocyclic inhibitors of ERK1 and ERK2 and their use in the treatment of cancer” (Asana Biosciences, LLC, priority 2015, dated 2024).
Where two headings read alike, the source gives them in different places.

What was measured:
Type in all cases: cell-based, human
[1] = tested on: HT-29 (colorectal carcinoma, B-RafV600E) cells; experiment: Cell proliferation (Alamar Blue) assay, HT-29
Summary of the method: (§1)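 After overnight plating (16-24 h), cells were treated for 72 h with compound dilutions spanning roughly 0.0005 to 10 uM. Proliferation was measured by Alamar Blue fluorescence and IC50 values derived from variable-slope dose-response curves.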

[2] = tested on: HCT116 (colorectal carcinoma, K Ras G13D) cells; experiment: Cell proliferation (Alamar Blue) assay, HCT116
Summary of the method: as §1

[3] = tested on: phosphorylation of RSK1(S380) (the downstream target of ERK1/2); experiment: Phospho-RSK1(S380) ELISA assay in HT-29 cells; details: read-out: Mechanistic Cell Assay RSK1 Phos HT29 IC50
Summary of the method: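 HT-29 colorectal carcinoma cells (B-RafV600E), plated overnight at 37° C./5% CO2, were treated with compound dilutions for 2 h. Lysates were analysed by phospho-RSK1(Ser380) sandwich ELISA with absorbance at 450 nm. IC50 came from a sigmoidal variable-slope dose-response fit.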

[4] = Homo sapiens, HT-29, HT29 cells
[5] = Homo sapiens, HCT-116, HCT116 cells
[6] = Homo sapiens, HT-29, HT29 cells, phospho-RSK1(S380)

Row | Compound | IC50 [1, 4] [nM] | IC50 [2, 5] [nM] | IC50 [3, 6] [nM] | IC50 [3, 4] [nM] | IC50 ([1]; HT29 cells) [nM] | IC50 ([2]; HCT116 cells) [nM] | IC50 ([3]; HT29 cells, phospho-RSK1(S380)) [nM]
1 | Cc1cnc(Nc2ccc(F)cc2Cl)nc1-n1cnc(C(=O)NC(CO)c2cccc(Cl)c2)c1 (stereo not drawn) [Example 166, 1-(2-((2-chloro-4-fluorophenyl)amino)-5-methyl-pyrimidin-4-yl)-N-(1-(3-chlorophenyl)-2-hydroxy-ethyl)-1H-imidazole-4-carboxamide] | 500 to 2500 | > 2500 | 250 to 500 | – | – | – | –
2 | Cc1cnc(Nc2ccc3c(c2)OCCO3)nc1-n1ccc(C(=O)NC(CO)c2ccccc2)c1 (stereo not drawn) [Example 131, 1-(2-((2,3-dihydro-benzo[b][1,4]dioxin-6-yl)-amino)-5-methyl-pyrimidin-4-yl)-N-(2-hydroxy-1-phenylethyl)-1H-pyrrole-3-carboxamide] | 250 to 500 | 250 to 500 | 250 to 500 | – | – | – | –
3 | Cc1cnc(Nc2ccc3c(c2)OC(F)(F)O3)nc1-n1ccc(C(=O)N[C@H](CO)c2ccc(F)c(Cl)c2)c1 [Example 69, (S)-N-(1-(3-chloro-4-fluoro-phenyl)-2-hydroxy-ethyl)-1-(2-((2,2-difluoro-benzo[d][1,3]dioxol-5-yl)amino)-5-methyl-pyrimidin-4-yl)-1H-pyrrole-3-carboxamide] | 500 to 2500 | 500 to 2500 | 500 to 2500 | – | – | – | –
4 | Cc1cnc(NC2CCCCC2)nc1-n1ccc(C(=O)NC(CO)c2cccc(Cl)c2)c1 (stereo not drawn) [Example 195, N-(1-(3-chlorophenyl)-2-hydroxyethyl)-1-(2-(cyclohexylamino)-5-methylpyrimidin-4-yl)-1H-pyrrole-3-carboxamide] | 100 to 250 | 500 to 2500 | 100 to 250 | – | – | – | –
5 | Cc1cnc(NCc2cccnc2)cc1-n1ccc(C(=O)NC(CO)c2ccc(F)c(Cl)c2)c1 (stereo not drawn) [Example 193, N-(1-(3-chloro-4-fluorophenyl)-2-hydroxyethyl)-1-(5-methyl-2-((pyridin-3-ylmethyl)amino)pyridin-4-yl)-1H-pyrrole-3-carboxamide] | > 2500 | > 2500 | 500 to 2500 | – | – | – | –
6 | Cc1cnc(N[C@H]2CCOC2)nc1-n1ccc(C(=O)NC(CO)c2ccc(F)cc2)c1 (stereo partly drawn) [Example 204, N-(1-(4-fluorophenyl)-2-hydroxyethyl)-1-(5-methyl-2-(((S)-tetrahydrofuran-3-yl)amino)pyrimidin-4-yl)-1H-pyrrole-3-carboxamide] | 500 to 2500 | > 2500 | 500 to 2500 | – | – | – | –
7 | Cc1cnc(NC2CCNC2)nc1-n1ccc(C(=O)N[C@H](CO)c2cccc(Cl)c2)c1 (stereo partly drawn) [Example 174, N-((S)-1-(3-chlorophenyl)-2-hydroxyethyl)-1-(5-methyl-2-(pyrrolidin-3-ylamino)pyrimidin-4-yl)-1H-pyrrole-3-carboxamide] | > 2500 | > 2500 | > 2500 | – | – | – | –
8 | Cc1cnc(NC2CCCOC2)nc1-n1ccc(C(=O)N[C@H](CO)c2cccc(Cl)c2)c1 (stereo partly drawn) [Example 156, N-((S)-1-(3-chloro-phenyl)-2-hydroxy-ethyl)-1-(5-methyl-2-((tetrahydro-2H-pyran-3-yl)amino)-pyrimidin-4-yl)-1H-pyrrole-3-carboxamide] | – | – | – | – | 250 to 500 | 500 to 2500 | 250 to 500
9 | Cc1cnc(Nc2ccc(F)cc2)cc1-n1ccc(C(=O)NC(CN)c2ccc(F)c(Cl)c2)c1 (stereo not drawn) [Example 164, N-(2-amino-1-(3-chloro-4-fluoro-phenyl)ethyl)-1-(2-((4-fluorophenyl)-amino)-5-methyl-pyridin-4-yl)-1H-pyrrole-3-carboxamide] | 500 to 2500 | > 2500 | 500 to 2500 | – | – | – | –
10 | Cc1cnc(Nc2ccc(F)cc2Cl)nc1-n1ccc(C(=O)NC(CO)c2ccccc2)c1 (stereo not drawn) [Example 32, 1-(2-((2-chloro-4-fluorophenyl)amino)-5-methyl-pyrimidin-4-yl)-N-(2-hydroxy-1-phenylethyl)-1H-pyrrole-3-carboxamide] | > 2500 | > 2500 | 500 to 2500 | – | – | – | –
11 | Cc1cnc(Nc2ccc3c(c2)CC(=O)N3)nc1-n1ccc(C(=O)NC(CO)c2cccc(Cl)c2)c1 (stereo not drawn) [Example 198, N-(1-(3-chlorophenyl)-2-hydroxyethyl)-1-(5-methyl-2-((2-oxoindolin-5-yl)amino)pyrimidin-4-yl)-1H-pyrrole-3-carboxamide] | 500 to 2500 | 500 to 2500 | 500 to 2500 | – | – | – | –
12 | COc1cc(Nc2ncc(C)c(-n3ccc(C(=O)NC(CO)c4ccccc4)c3)n2)cc(OC)c1OC (stereo not drawn) [Example 121, N-(2-hydroxy-1-phenylethyl)-1-(5-methyl-2-((3,4,5-trimethoxy-phenyl)amino)pyrimidin-4-yl)-1H-pyrrole-3-carboxamide] | 250 to 500 | 250 to 500 | 250 to 500 | – | – | – | –
13 | Cc1cnc(Nc2ccc3c(c2)OC(F)(F)O3)cc1-n1ccc(C(=O)NC(CO)c2ccccc2)c1 (stereo not drawn) [Example 80, 1-(2-((2,2-difluorobenzo [d][1,3]dioxol-5-yl)-amino)-5-methyl-pyridin-4-yl)-N-(2-hydroxy-1-phenyl-ethyl)-1H-pyrrole-3-carboxamide] | > 2500 | > 2500 | > 2500 | – | – | – | –

More lines, now with the values ahead:

Row | IC50 [1, 4] [nM] | IC50 [2, 5] [nM] | IC50 [3, 6] [nM] | IC50 [3, 4] [nM] | IC50 ([1]; HT29 cells) [nM] | IC50 ([2]; HCT116 cells) [nM] | IC50 ([3]; HT29 cells, phospho-RSK1(S380)) [nM] | Compound
14 | 250 to 500 | > 2500 | – | 250 to 500 | – | – | – | Cc1cnc(NC2CCOCC2)nc1-n1cnc(C(=O)NCc2nc(Cl)sc2C)c1 [Example 328, N-((2-chloro-5-methylthiazol-4-yl)methyl)-1-(5-methyl-2-((tetrahydro-2H-pyran-4-yl)amino)pyrimidin-4-yl)-1H-imidazole-4-carboxamide]
15 | ≤ 100 | ≤ 100 | – | ≤ 100 | – | – | – | Cc1cnc(NC2CCOCC2)nc1-n1cnc(C(=O)NCc2cccc(Cl)c2CCO)c1 [Example 334, N-(3-chloro-2-hydroxyethylbenzyl)-1-(5-methyl-2-((tetrahydro-2H-pyran-4-yl)amino)pyrimidin-4-yl)-1H-imidazole-4-carboxamide]
16 | ≤ 100 | 250 to 500 | ≤ 100 | – | – | – | – | Cc1cnc(N[C@H]2CCOC2)nc1-n1ccc(C(=O)N[C@H](CO)c2cccc(Cl)c2)c1 [Example 161, N-((S)-1-(3-chlorophenyl)-2-hydroxy-ethyl)-1-(5-methyl-2-(((S)-tetra-hydrofuran-3-yl)amino)pyrimidin-4-yl)-1H-pyrrole-3-carboxamide]
17 | > 2500 | 250 to 500 | – | 500 to 2500 | – | – | – | Cc1cnc(NC2CCOCC2)nc1-n1cnc(C(=O)N[C@H](CNC2CCOCC2)c2cccc(Cl)c2)c1 [Example 308, (S)-N-(1-(3-chlorophenyl)-2-((tetrahydro-2H-pyran-4-yl)amino)ethyl)-1-(5-methyl-2-((tetrahydro-2H-pyran-4-yl)amino)pyrimidin-4-yl)-1H-imidazole-4-carboxamide]
18 | 250 to 500 | > 2500 | – | 100 to 250 | – | – | – | Cc1cnc(NC2CCOCC2)nc1-n1cnc(C(=O)NCc2cccc(CO)c2Cl)c1 [Example 335, N-(2-chloro-3-(hydroxymethyl)benzyl)-1-(5-methyl-2-((tetrahydro-2H-pyran-4-yl)amino)pyrimidin-4-yl)-1H-imidazole-4-carboxamide]
19 | 250 to 500 | > 2500 | 500 to 2500 | – | – | – | – | Cc1cccc([C@@H](CO)NC(=O)c2ccn(-c3nc(N[C@H]4CCOC4)ncc3C)c2)n1 [Example 207, N-((S)-2-hydroxy-1-(6-methylpyridin-2-yl)ethyl)-1-(5-methyl-2-(((S)-tetrahydrofuran-3-yl)amino)pyrimidin-4-yl)-1H-pyrrole-3-carboxamide]
